The target of assay [1] is T1, RsTSPO (Cereibacter sphaeroides, UniProt Q9RFC8, A136L/A138F/T137A).
T1 sequence (Q9RFC8 1-158 A136L/T137A/A138F): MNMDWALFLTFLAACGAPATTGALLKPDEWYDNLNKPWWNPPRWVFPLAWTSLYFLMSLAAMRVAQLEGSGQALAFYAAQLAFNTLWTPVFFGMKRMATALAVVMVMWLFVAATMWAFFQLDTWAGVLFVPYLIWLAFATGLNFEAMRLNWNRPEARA
Nature of the assay: fluorescence quenching. Type of assay: binding.

Assay [2] deals with T2, RsTSPO (Cereibacter sphaeroides, UniProt Q9RFC8).
T2 sequence (Q9RFC8 1-158): T1 sequence (Q9RFC8 1-158 A136L/T137A/A138F) with L136A, A137T, F138A
Nature of the assay: fluorescence quenching. Format: binding. The note with it: affinity value, symbol not given.

Assay [3] concerns the target T2, RsTSPO. Put plainly: binding to purified protein.
The target in assay [4] is T1, RsTSPO. Put plainly: binding to purified protein.
Assay [5] addresses T1, RsTSPO. Put plainly: binding to purified protein. This is another data set of the same source.
Assay [6] has as its target T2, RsTSPO. Put plainly: binding to purified protein. The note with it: affinity value, symbol not given.

Each structure is given as a SMILES string. Substitutions are numbered along the chain they refer to.

Our source for the Kd values is PMC5125615 (Biochemistry, 2015).

`CCC(C)N(C)C(=O)c1cc2ccccc2c(-c2ccccc2Cl)n1` (stereo not drawn) [PK11195]: the Kd – broadly, a measure of binding affinity in units of concentration – at RsTSPO [1] worked out at 15 ± 4 µM; on RsTSPO [2], 10 ± 1 µM.

On to `CC(C)CCC[C@@H](C)[C@H]1CC[C@H]2[C@@H]3CC=C4C[C@@H](O)CC[C@]4(C)[C@H]3CC[C@]12C` [cholesterol], for which the results for the dissociation constant Kd at RsTSPO [3] and on RsTSPO [4] were approximately 80 µM and approximately 0.02 µM, respectively.

With `C=CC1=C(C)c2cc3[nH]c(cc4nc(cc5[nH]c(cc1n2)c(C)c5CCC(=O)O)C(CCC(=O)O)=C4C)c(C)c3C=C` [protoporphyrin IX], the Kd on RsTSPO [5] was determined as 1.1 ± 0.1 µM; on RsTSPO [6], 0.31 ± 0.01 µM.
